Among the data in patent US12122761B2, “2-azaspiro[3.4]octane derivatives as M4 agonists” (NOVARTIS AG, priority 2019, dated 2024) are Emax and EC50 values, retold here.

The structures appear in SMILES notation. A value given as a limit tells only on which side of the number the result lay.

In assay [1] the target is T1, Cloned human M1 receptor (CHRM1) stably expressed in HEK293 cells (Homo sapiens, UniProt P11229).
T1 construct: expressed in transfected cells; host or cells: HEK293
T1 sequence (P11229 1-460): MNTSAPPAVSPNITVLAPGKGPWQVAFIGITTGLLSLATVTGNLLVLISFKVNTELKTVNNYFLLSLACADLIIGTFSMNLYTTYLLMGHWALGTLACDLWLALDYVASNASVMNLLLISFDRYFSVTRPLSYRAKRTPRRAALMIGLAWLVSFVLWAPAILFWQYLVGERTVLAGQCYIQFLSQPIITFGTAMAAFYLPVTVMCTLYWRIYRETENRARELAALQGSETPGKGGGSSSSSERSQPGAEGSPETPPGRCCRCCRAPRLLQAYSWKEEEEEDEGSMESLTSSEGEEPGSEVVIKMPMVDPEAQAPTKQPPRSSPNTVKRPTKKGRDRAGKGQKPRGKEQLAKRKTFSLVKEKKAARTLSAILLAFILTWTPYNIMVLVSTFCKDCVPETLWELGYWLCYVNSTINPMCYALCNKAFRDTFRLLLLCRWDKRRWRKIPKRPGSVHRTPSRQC
The assay can be described thus: CHRM1 Ca++ Flux Assay (agonist mode, FDSS 7000EX). In kind it is cell-based. The settings on record: for Emax: HEK293, Percent Activity, read-out: M1 FDSS PA; for EC50: geometric mean if tested more than once. Put shortly: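 Compounds tested as agonists at 11 concentrations in triplicate, with calcium traces captured over 3 minutes. Cells were HEK293 with stable human CHRM1 expression, plated overnight at 25K/well and loaded with calcium dye. Responses normalized to carbachol EC100 and fitted by four-parameter nonlinear regression.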

Assay [2] deals with T2, human cloned CHRM2 receptor (M2_CHO cells) (Homo sapiens, UniProt P08172).
T2 construct: expressed in transfected cells; host or cells: CHO-K1
T2 sequence (P08172 1-466): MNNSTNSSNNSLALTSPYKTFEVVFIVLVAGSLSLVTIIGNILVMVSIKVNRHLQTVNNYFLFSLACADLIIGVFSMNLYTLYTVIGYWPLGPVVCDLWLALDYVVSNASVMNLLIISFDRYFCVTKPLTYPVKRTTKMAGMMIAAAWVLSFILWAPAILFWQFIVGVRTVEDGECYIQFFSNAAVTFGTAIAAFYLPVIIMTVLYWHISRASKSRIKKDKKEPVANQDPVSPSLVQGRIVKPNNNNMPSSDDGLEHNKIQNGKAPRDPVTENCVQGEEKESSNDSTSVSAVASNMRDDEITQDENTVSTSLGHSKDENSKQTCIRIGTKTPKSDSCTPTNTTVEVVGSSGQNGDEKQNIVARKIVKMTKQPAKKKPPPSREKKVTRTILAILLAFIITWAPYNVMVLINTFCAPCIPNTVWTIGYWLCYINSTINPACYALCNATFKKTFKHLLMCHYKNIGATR
The assay can be described thus: CHRM2 Ca++ Flux Assay (agonist mode, FDSS 7000EX). The class given is cell-based. The settings on record: for Emax: Percent Activity measured to EC100 of Carbachol, read-out: M2 FDSS PA; for EC50: agonist mode, geometric mean if tested more than once, read-out: M2 FDSS EC50. Put shortly: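 Agonist-mode Ca++ flux in CHO-K1 cells stably expressing human CHRM2, dye-loaded, then held 60 min at room temperature in buffer with 20 μM ATP before compound addition; traces read over 3 minutes. Four-parameter fit of triplicate wells; percent activity relative to Carbachol EC100.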

The EC50 is the concentration needed to bring the measured effect to its halfway point. Turning to `COCCOc1ccccc1C1CCN([C@@H]2CCC3(C2)CN(c2ncns2)C3)CC1` [Example 3J, (R)-5-(6-(4-(2-(2-methoxyethoxy)phenyl)piperidin-1-yl)-2-azaspiro[3.4]octan-2-yl)-1,2,4-thiadiazole], in assay [1], the Emax turned out to be 58% and the response was half-maximal at 85 nM (EC50). Besides, in assay [2], the Emax came out at 0%.
With `CC(C)(O)COc1ccccc1C1CCN([C@@H]2CCC3(C2)CN(c2ncns2)C3)CC1` [Example 3K, (R)-1-(2-(1-(2-(1,2,4-thiadiazol-5-yl)-2-azaspiro[3.4]octan-6-yl)piperidin-4-yl)phenoxy)-2-methylpropan-2-ol], the Emax in assay [1] stood at 57%; in assay [2] it was 0%. Besides, a half-maximal response in assay [1] (EC50) required 186 nM.
The like results for `CC(C)(O)CCOc1ccccc1C1CCN([C@@H]2CCC3(C2)CN(c2ncns2)C3)CC1` [Example 3L, (R)-4-(2-(1-(2-(1,2,4-thiadiazol-5-yl)-2-azaspiro[3.4]octan-6-yl)piperidin-4-yl)phenoxy)-2-methylbutan-2-ol] were, in that order, 67%, 0% and 62 nM.
The matching figures for `COc1ccccc1C1CCN([C@@H]2CCC3(C2)CN(c2nc(C)ns2)C3)CC1` [Example 3M, (R)-5-(6-(4-(2-methoxyphenyl)piperidin-1-yl)-2-azaspiro[3.4]octan-2-yl)-3-methyl-1,2,4-thiadiazole]: 0%, 0% and over 25000 nM.
Turning to `Fc1cncc(N2CC3(CC[C@@H](N4CCC(c5ccccc5C5CCOCC5)CC4)C3)C2)c1` [Example 5AA, (R)-2-(5-fluoropyridin-3-yl)-6-(4-(2-(tetrahydro-2H-pyran-4-yl)phenyl)piperidin-1-yl)-2-azaspiro[3.4]octane], in assay [1], the Emax stood at 61% and the EC50 was found to be 102 nM. In assay [2], the Emax was determined as 28% and the EC50 turned out to be 1770 nM.
The matching figures for `c1ccc(C2CCN([C@@H]3CCC4(C3)CN(c3cncnc3)C4)CC2)c(C2CCOCC2)c1` [Example 5BB, (R)-2-(pyrimidin-5-yl)-6-(4-(2-(tetrahydro-2H-pyran-4-yl)phenyl)piperidin-1-yl)-2-azaspiro[3.4]octane]: 72%, 201 nM, 13% and 739 nM.
Consider `Fc1ccc(N2CC3(CC[C@@H](N4CCC(c5ccccc5C5CCOCC5)CC4)C3)C2)cn1` [Example 5CC, (R)-2-(6-fluoropyridin-3-yl)-6-(4-(2-(tetrahydro-2H-pyran-4-yl)phenyl)piperidin-1-yl)-2-azaspiro[3.4]octane], for which, in assay [1], the Emax came to 36% and the EC50 is 335 nM. Also, in assay [2], the Emax worked out at 35% and the EC50 was 466 nM.
Take `COc1ccccc1C1CCN([C@@H]2CCC3(C2)CN(c2cnc(C)cn2)C3)CC1` [Example 5DD, (R)-6-(4-(2-methoxyphenyl)piperidin-1-yl)-2-(5-methylpyrazin-2-yl)-2-azaspiro[3.4]octane]: in assay [1], the Emax was found to be 0% and the EC50 worked out at 1260 nM. For the same molecule, in assay [2], the Emax amounted to 0% and the EC50 is over 25000 nM.
For the molecule `Cc1nccnc1N1CC2(CC[C@@H](N3CCC(c4ccccc4OCC(C)(C)O)CC3)C2)C1` [Example 5T, (R)-2-methyl-1-(2-(1-(2-(3-methylpyrazin-2-yl)-2-azaspiro[3.4]octan-6-yl)piperidin-4-yl)phenoxy)propan-2-ol], the Emax in assay [1] worked out at 34%; in assay [2], 0%. In addition, the EC50 in assay [1] came to 537 nM.
The matching figures for `CC(C)(O)COc1ccccc1C1CCN([C@@H]2CCC3(C2)CN(c2ncncn2)C3)CC1` [Example 5U, (R)-1-(2-(1-(2-(1,3,5-triazin-2-yl)-2-azaspiro[3.4]octan-6-yl)piperidin-4-yl)phenoxy)-2-methylpropan-2-ol]: 2%, 0% and 672 nM.
The like results for `COc1ccc(F)cc1C1CCN([C@@H]2CCC3(C2)CN(c2ccnnc2)C3)CC1` [Example 5V, (R)-6-(4-(5-fluoro-2-methoxyphenyl)piperidin-1-yl)-2-(pyridazin-4-yl)-2-azaspiro[3.4]octane] were, in that order, 60%, 0% and 215 nM.
As to `Fc1cccc(C2CCN([C@@H]3CCC4(C3)CN(c3cncnc3)C4)CC2)c1OC1COC1` [Example 5W, (R)-6-(4-(3-fluoro-2-(oxetan-3-yloxy)phenyl)piperidin-1-yl)-2-(pyrimidin-5-yl)-2-azaspiro[3.4]octane], in assay [1], the Emax was determined as 60% and a half-maximal response (EC50) required 52 nM. In assay [2], the Emax was 16% and the EC50 worked out at 57 nM.
For the molecule `COCCOc1ccccc1C1CCN([C@@H]2CCC3(C2)CN(c2cccnn2)C3)CC1` [Example 5X, (R)-6-(4-(2-(2-methoxyethoxy)phenyl)piperidin-1-yl)-2-(pyridazin-3-yl)-2-azaspiro[3.4]octane], in assay [1], the Emax turned out to be 0% and the 50% effective concentration (EC50) is over 25000 nM. Also, the Emax in assay [2] was 0%.
As for `COCCOc1ccccc1C1CCN([C@@H]2CCC3(C2)CN(c2cnc(C)cn2)C3)CC1` [Example 5Y, (R)-6-(4-(2-(2-methoxyethoxy)phenyl)piperidin-1-yl)-2-(5-methylpyrazin-2-yl)-2-azaspiro[3.4]octane], in assay [1], the Emax is 0% and the EC50 is over 25000 nM. In addition, in assay [2], the Emax came to 0% and the 50% effective concentration (EC50) was under 26000 nM.
Take `COCCOc1ccccc1C1CCN([C@@H]2CCC3(C2)CN(c2ccnnc2)C3)CC1` [Example 5Z, (R)-6-(4-(2-(2-methoxyethoxy)phenyl)piperidin-1-yl)-2-(pyridazin-4-yl)-2-azaspiro[3.4]octane]: the figures for the Emax in assay [1] and in assay [2] were 21% and 0%, respectively. This molecule gave an EC50 in assay [1] of 413 nM.
For `O=C(C1COC1)N1CC2(CC[C@@H](N3CCC(c4ccc(F)cc4OC(F)F)CC3)C2)C1` [Example 6B, (R)-(6-(4-(2-(difluoromethoxy)-4-fluorophenyl)piperidin-1-yl)-2-azaspiro[3.4]octan-2-yl)(oxetan-3-yl)methanone], in assay [1], the Emax was 90% and the EC50 turned out to be 12 nM. In assay [2], the Emax came out at 0%.
The matching figures for `CC(C)Oc1cc(F)ccc1C1CCN([C@@H]2CCC3(C2)CN(C(=O)C2COC2)C3)CC1` [Example 6D, (R)-(6-(4-(4-fluoro-2-isopropoxyphenyl)piperidin-1-yl)-2-azaspiro[3.4]octan-2-yl)(oxetan-3-yl)methanone]: 18%, 18 nM and 0%.
`O=C(N1CC2(CC[C@@H](N3CCC(c4ccccc4C4CCOCC4)CC3)C2)C1)C1(F)CC1` [Example 6E, (R)-(1-fluorocyclopropyl)(6-(4-(2-(tetrahydro-2H-pyran-4-yl)phenyl)piperidin-1-yl)-2-azaspiro[3.4]octan-2-yl)methanone]: in assay [1], the Emax is 67% and the response was half-maximal at 120 nM (EC50). Also, the Emax in assay [2] turned out to be 0%.
As to `O=C(C1COC1)N1CC2(CC[C@@H](N3CCC(c4ccccc4OC4CC4)CC3)C2)C1` [Example 7A, (R)-(6-(4-(2-cyclopropoxyphenyl)piperidin-1-yl)-2-azaspiro[3.4]octan-2-yl)(oxetan-3-yl)methanone], in assay [1], the Emax was found to be 75% and it took 9 nM to reach a half-maximal effect (EC50). Besides, in assay [2], the Emax was 55% and the EC50 turned out to be 142 nM.
As to `CC(C)(F)COc1ccccc1C1CCN([C@@H]2CCC3(C2)CN(C(=O)C2COC2)C3)CC1` [Example 7B, (R)-(6-(4-(2-(2-fluoro-2-methylpropoxy)phenyl)piperidin-1-yl)-2-azaspiro[3.4]octan-2-yl)(oxetan-3-yl)methanone], in assay [1], the Emax turned out to be 78% and the midpoint of the response, the EC50, lay at 15 nM. Moreover, in assay [2], the Emax stood at 77% and the EC50 turned out to be 651 nM.
For the molecule `O=C(C1COC1)N1CC2(CC[C@@H](N3CCC(c4ccccc4Oc4nccs4)CC3)C2)C1` [Example 7C, (R)-oxetan-3-yl(6-(4-(2-(thiazol-2-yloxy)phenyl)piperidin-1-yl)-2-azaspiro[3.4]octan-2-yl)methanone], in assay [1], the Emax came out at 87% and the 50% effective concentration (EC50) turned out to be 11 nM. Besides, the Emax in assay [2] came out at 0%.
